# Experimental data from patent US20190169574A1, “IN VITRO PRODUCTION OF PANCREATIC BETA CELLS” (NESTEC S.A., priority 2016, published 2019).
# How the values were obtained:
# [1] = system: MAFA; test: MAFA detection by immunohistochemistry; assay type: cell-based; settings: as early as at D9 of differentiation; FIG. 7
# Excerpt: (§1) Moreover, culturing the PE cells in suspension or in transwell culture systems in presence of Isx9 is showing the same effect of improved glucose-dependent insulin response as shown in FIG. 5 and FIG. 6. […] Both markers are critical for mediating the response of insulin secretion mediated by glucose. The expression of MAFA can also be unprecedently detected by immunohistochemistry as early as at D9 of differentiation as shown in FIG. 7.
# [2] = system: human cadaveric islets; settings: islets that produced low levels of insulin due to prolonged culture; cited from earlier work
# [3] = system: PE cells; test: Dose response test: toxicity and morphology of PE cell aggregates in culture with increasing doses of Isx9; assay type: cell-based; settings: FIG. 1
# Method: FIG. 1: Morphological analysis of PE cells in culture with increasing doses of Isx9. PE cells were cultured in suspension without Isx9 (DMSO control carrier), and with increasing concentrations of Isx9 (6 μM, 12 μM, 24 μM, 48 μM and 60 μM) for 4 days and 8 days. 5× and 10× magnification pictures have been collected for each condition and time point.
# Dose response tests have been performed to determine toxicity of Isx9 and the optimal concentration of Isx9 to be tested for beta cell differentiation in vitro. High concentrations of Isx9 (from 24 μM up to 60 μM) appears to be toxic as the aggregates of PE cells become cystic after 8 days in culture as shown in FIG. 1. In contrast, the morphology of the aggregates of PE cells is unchanged as compared to the control DMSO condition when using 6 and 12 μM of Isx9. In order to maintain physiological condition, a concentration of 6 μM of Isx9 has been used for the entire protocol. Exposure of maturing beta cells to Isx9 for 13 days is increasing the glucose-stimulated insulin secretion of the cells as compared to the control DMSO condition (FIG. 2). This effect is correlated with the duration of exposure to Isx9 at 6 uM. […] Isx9 induces an increase in RNA expression levels of endocrine markers such as Ngn3, but also beta cell markers as NeuroD1 and Nkx2.2.
# [4] = system: maturing beta cells; test: Analysis of the cell composition of the maturing beta cells (insulin positive cells); assay type: cell-based; settings: Isx9 added
# Excerpt: FIG. 7: FACS sorting of cells
# as §1
# [5] = system: PE cells / in vitro maturing beta cells; test: RNA / gene expression levels of endocrine progenitor and beta cell markers; assay type: cell-based
# Method: FIG. 3: Early exposure of PE cells to Isx9 increases gene expression levels of endocrine progenitors as well as mature beta cell markers. A: Scheme of the protocol setup. B: Early exposure of PE cells to Isx9 (6 μM) for 2-6 days (condition 3) increases RNA expression levels of Ngn3, Nkx2.2 and NeuroD1 at D13 of differentiation, as compared to DMSO exposure (condition 1). The increase of Nkx2.2 RNA expression levels is maintained at D23 of differentiation when in vitro maturing beta cells are exposed to Isx9 (6 uM) in a two-step protocol (condition 4). Controls are represented by primary human islets. First bar of each pair is 2 mM and second bar is at 20 mM. Frozen PE cells were thawed and cultured for 1 day in I medium containing 10 U/mL DNase I in ULA 6WP flat-bottomed plates. The PE cells were subsequently transferred to S3 BASE medium (MCDB131, 8 mM D-glucose, 1.23 g/L NaHCO3, 2% FFA BSA, 1:200 ITX-X, 2 mM glutamax, 100×PS and 0.25 mM vitamin C) containing 50 ng/mL KGF, 0.25 μM Sant1, 100 nM RA and 10 μM Y and cultured for a further 2 days. The resulting cells were then cultured for 4 days using an air-liquid interface culture protocol in Transwell plates. The culture was carried out in S5 BASE medium (MCDB131, 20 mM D-glucose, 1.754 g/L NaHCO3, 2% FFA BSA, 1:200 ITX-X, 2 mM glutamax, 100×PS, 0.25 mM vitamin C and […] heparin) containing 100 nM RA, 1 μM XXI, 0.25 μM Sant1, 10 μM Alk5i II, 1 μM T3, 20 ng/mL beta-cellulin, 10 μM Y and 6 μM isoxazole 9 (ISX-9). Subsequently, the medium was exchanged for S5 BASE medium containing 25 nM RA, 1 μM XXI, 10 μM Alk5i II, 1 μM T3, 20 ng/mL beta-cellulin and 10 μM Y and the cells were cultured for a further 3 days. ISX-9 was not present in this medium. Finally, the medium was exchanged for S6 BASE medium (CMRL 1066, 10% FBS and 100×PS) containing 10 μM Alk5i II, 1 μM T3 and 10 μM Y and the cells were cultured for a further 15 days. ISX-9 was added to this medium at a concentration of 6 μM for the final 14 days of culture (i.e. the first day of culture in this step was carried out in the absence of ISX-9).
# [6] = system: adult neural stem cell; settings: in vitro and in vivo; cited from earlier work
# [7] = system: iPSC-derived maturing beta cells; test: In vitro glucose-stimulated insulin secretion test; assay type: cell-based
# Method: FIG. 2: Exposure of PE cells to Isx9 induces glucose response properties to the cells. A: Scheme of the protocol setup. Maturing beta cells have been exposed to DMSO or Isx9 (6 μM) for 13 days, 7 days or 2 days during the maturation step. B: In vitro glucose-stimulated Insulin secretion test have been performed to measure secretion of Insulin in each condition (No Isx9, 13 days Isx9, 7 days Isx9 or 2 days Isx9) induced by low glucose concentration (2 mM) or high glucose concentration (20 mM). The stimulation index of Insulin secretion is determined between the 2 concentrations of glucose on the y axis. FIG. 4: Exposure of PE cells to Isx9 in two-steps increases glucose response properties to the cells. A: Scheme of the protocol setup. In a first step, PE cells have been exposed to DMSO (condition 1) or Isx9 (6 μM) for 2-6 days (condition 2). In a second step, maturing beta cells have been exposed to DMSO (condition 3) or Isx9 (6 uM) for 10 days (condition 4). B: In vitro glucose-stimulated Insulin secretion test have been performed to measure secretion of Insulin in each condition, induced by low glucose concentration (2 mM) or high glucose concentration (20 mM). The stimulation index of Insulin secretion is determined between the 2 concentrations of glucose on they axis. In order from left to right: NKX6.1, Pdx1, NGN3, NKX2-2, NeuroD1. Frozen PE cells were thawed and cultured for 1 day in I medium containing 10 U/mL DNase I in ULA 6WP flat-bottomed plates. The PE cells were subsequently transferred to S3 BASE medium (MCDB131, 8 mM D-glucose, 1.23 g/L NaHCO3, 2% FFA BSA, 1:200 ITX-X, 2 mM glutamax, 100×PS and 0.25 mM vitamin C) containing 50 ng/mL KGF, 0.25 μM Sant1, 100 nM RA and 10 μM Y and cultured for a further 2 days. The resulting cells were then cultured for 4 days using an air-liquid interface culture protocol in Transwell plates. […]
# [8] = Isx9 6 μM early exposure of PE cells for 2-6 days vs DMSO, D13 of differentiation, FIG. 3
compound,measurement,setting,value
"O=C(NC1CC1)c1cc(-c2cccs2)on1 [Isx9, Isoxazole 9]",expression of MAFA by immunohistochemistry,[1],detected
same,expression and secretion of insulin,[2],increase
same,morphology of the aggregates of PE cells as compared to the control DMSO condition,[3]; 6 and 12 μM of Isx9,unchanged
same,toxicity (aggregates of PE cells become cystic),"[3]; high concentrations, from 24 μM up to 60 μM, after 8 days in culture",toxic
same,number or quantity of insulin positive cells as compared to DMSO,[4],does not receal an increase
same,RNA expression level of NeuroD1,[5]; [8],increases
same,RNA expression level of Ngn3,[5]; [8],increases
same,RNA expression level of Nkx2.2,[5]; [8],increases
same,increase of Nkx2.2 RNA expression levels at D23,"[5]; Isx9 6 uM two-step protocol (condition 4), D23 of differentiation, FIG. 3",maintained
same,MAFA gene expression level,[5]; in presence of Isx9,increase
same,PCSK1 gene expression level,[5]; in presence of Isx9,increase
same,adult neural stem cell differentiation,[6],induce
same,effect of Isx9 on glucose response when added in a first step at the PE cell stage (two-step protocol),"[7]; Isx9 6 μM, first step 2-6 days at PE stage, second step 10 days, FIG. 3 and FIG. 4",reinforced
same,glucose-dependent insulin response,"[7]; PE cells cultured in suspension or in transwell culture systems in presence of Isx9, FIG. 5 and FIG. 6",improved
same,glucose-stimulated insulin secretion of the cells as compared to the control DMSO condition,"[7]; maturing beta cells exposed to Isx9 6 μM for 13 days, 2 mM vs 20 mM glucose, effect correlated with duration of exposure, FIG. 2",increasing
